Test results from ChEMBL document CHEMBL1201862, “PubChem BioAssay data set” (2004).
Activity calls are given as the source filed them.

What was measured:
[1] = target: Cyclin-dependent kinase 5 (Homo sapiens, UniProt Q00535); type: functional;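 further: CDK5 measured as one member of a kinase profiling panel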
[2] = target: Serine/threonine-protein kinase TAO1 (Homo sapiens, UniProt Q7L7X3); type: functional
[3] = target: Dual specificity protein kinase CLK4 (Homo sapiens, UniProt Q9HAZ1); type: functional
[4] = target: Vascular endothelial growth factor receptor 2 (Homo sapiens, UniProt P35968); type: functional
[5] = target: Aurora kinase A (Homo sapiens, UniProt O14965); type: functional;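 further: value from the Navigating the Kinome kinase panel profiling, panel entry STK6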
[6] = target: Aurora kinase B (Homo sapiens, UniProt Q96GD4); type: functional
[7] = disruptors of CAL PDZ reporter peptide binding – biochemical, fluorescence polarization, untagged CAL PDZ, dry powder, dose response (AID 602255); type: functional
[8] = target: T1, Polyadenylate-binding protein 1 (Homo sapiens, UniProt P11940); assay: MLLE domain peptide-binding blockers, IC50 – biochemical, fluorescence polarization, FITC-PAM2 peptide, dose response (AID 602259); type: functional; details: read-out: IC50_Mean
[9] = tested on: Vero; assay: viability of Vero cells under compound – cytotoxicity control for flavivirus capping enzyme inhibitors (AID 588742); type: functional; details: Chlorocebus sabaeus
[10] = target: Transitional endoplasmic reticulum ATPase (Homo sapiens, UniProt P55072); assay: p97 ATPase inhibitors, dose response, biochemical (AID 1534)
[11] = A549 cell cytotoxicity, dose response, cytotoxicity control, plate reader, cherry-pick, antagonist series (AID 743412); type: functional, cell-based
[12] = viability loss in HEK293 cells – cell-based, plate reader, cherry-picked samples, cytotoxicity control, dose response (AID 743446); type: functional
[13] = target: T2, Cystic fibrosis transmembrane conductance regulator/Golgi-associated PDZ and coiled-coil motif-containing protein (Homo sapiens, UniProt P13569+Q9HD26); assay: disruption of CAL PDZ–reporter peptide interaction – biochemical, fluorescence polarization, Cer-tagged CAL PDZ, dry powder, dose response (AID 602253); type: functional
[14] = target: Genome polyprotein (dengue virus type 2, UniProt P29990); assay: flavivirus cap methylation enzyme inhibition – biochemical, confirmation dose response, primary screen (AID 588689); type: functional
[15] = toxicity toward HepG2 liver cells – cell-based, plate reader, cherry-pick, antagonist series, cytotoxicity control, dose response (AID 743416); type: functional
[16] = target: Induced myeloid leukemia cell differentiation protein Mcl-1 (Homo sapiens, UniProt Q07820); type: functional
[17] = target: Transitional endoplasmic reticulum ATPase (Homo sapiens, UniProt P55072, C522A); assay: C522A mutant p97 ATPase inhibitors, dose response, counter-screen for p97 inhibitor project, biochemical, luminescence (AID 1544)
[18] = viability of BHK-21 cells – cell-based, secondary screen, cytotoxicity control for flavivirus guanylyltransferase probe project (AID 624078); type: functional
[19] = target: T3, Tyrosyl-DNA phosphodiesterase 2 (Homo sapiens, UniProt O95551); assay: potency against TDP2 phosphodiesterase activity – biochemical, epi absorbance, IC50, dose response (AID 743297)
T3 sequence (O95551 whole entry): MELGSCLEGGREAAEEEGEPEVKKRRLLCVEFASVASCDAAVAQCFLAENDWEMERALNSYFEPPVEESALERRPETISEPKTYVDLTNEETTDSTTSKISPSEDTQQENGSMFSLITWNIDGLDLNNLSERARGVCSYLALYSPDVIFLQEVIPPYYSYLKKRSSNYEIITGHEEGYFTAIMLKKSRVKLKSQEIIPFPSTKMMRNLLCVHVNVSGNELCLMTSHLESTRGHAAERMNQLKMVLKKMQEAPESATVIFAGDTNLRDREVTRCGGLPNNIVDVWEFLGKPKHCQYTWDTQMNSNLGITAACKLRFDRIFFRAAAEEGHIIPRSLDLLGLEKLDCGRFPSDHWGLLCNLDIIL

[20] = target: T2, Cystic fibrosis transmembrane conductance regulator/Golgi-associated PDZ and coiled-coil motif-containing protein; assay: potency against CAL PDZ-peptide interaction – biochemical, fluorescence polarization, Cerulean-tagged CAL PDZ, cherry-picks, dose response (AID 504773)
[21] = target: Glucose-6-phosphate 1-dehydrogenase (Homo sapiens, UniProt P11413); assay: inhibition of Homo sapiens G6PD, dose series – biochemical, fluorescence, selectivity assay for P. falciparum G6PD inhibitor project, dose response (AID 504792); type: functional
[22] = target: T1, Polyadenylate-binding protein 1; assay: MLLE binding blockers, Cy5 peptide tracer – biochemical, fluorescence polarization, Cy5-PAM2 peptide, secondary, miRNA deadenylation inhibitor project, dose response (AID 602260); type: functional; details: read-out: IC50_Mean
[23] = target: Hexokinase HKDC1 (Homo sapiens, UniProt Q2TB90); assay: inhibition of HKDC1 glucose phosphorylation – biochemical, W721R variant, dose response (AID 504729); type: functional
[24] = blockade of melanocortin 4 receptor signaling – cell-based, plate reader, cherry pick, counter-screen for LGR2 antagonist project, dose response (AID 743444); type: functional;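 further: transfected HEK 293 cells stimulated with alpha-MSH peptide; potency of inhibitors of the alpha-MSH evoked signal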
[25] = target: Glycogen synthase kinase-3 beta (Homo sapiens, UniProt P49841); type: functional;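 further: value comes from a broad kinome profiling panel, with GSK3B as the panel member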
[26] = target: Hepatocyte growth factor receptor (Homo sapiens, UniProt P08581); type: functional;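 further: kinase panel profiling across the kinome, with MET as the panel member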
[27] = target: Fibroblast growth factor receptor 1 (Homo sapiens, UniProt P11362); type: functional
[28] = target: cAMP-dependent protein kinase catalytic subunit alpha (Homo sapiens, UniProt P17612); type: functional
[29] = target: High affinity nerve growth factor receptor (Homo sapiens, UniProt P04629); type: functional;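 further: NTRK1 tested as one member of a kinome-wide profiling panel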
[30] = target: Dual specificity tyrosine-phosphorylation-regulated kinase 1A (Homo sapiens, UniProt Q13627); type: functional;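 further: measured against DYRK1A as one member of a broad kinome profiling panel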
[31] = target: LIM domain kinase 1 (Homo sapiens, UniProt P53667); assay: Navigating the Kinome. Panel member name: LIMK1; type: functional
[32] = target: 5'-AMP-activated protein kinase catalytic subunit alpha-1 (Homo sapiens, UniProt Q13131); type: functional
[33] = target: Serine/threonine-protein kinase PLK3 (Homo sapiens, UniProt Q9H4B4); type: functional
[34] = target: Macrophage-stimulating protein receptor (Homo sapiens, UniProt Q04912); assay: Navigating the Kinome. Panel member name: MST1R; type: functional
[35] = target: Serine/threonine-protein kinase PAK 4 (Homo sapiens, UniProt O96013); type: functional;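 further: value obtained within a kinome profiling panel in which PAK4 was one of the panel members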
[36] = target: Calcium/calmodulin-dependent protein kinase type II subunit alpha (Homo sapiens, UniProt Q9UQM7); assay: Navigating the Kinome. Panel member name: CAMK2A; type: functional
[37] = target: Leucine-rich repeat serine/threonine-protein kinase 2 (Homo sapiens, UniProt Q5S007); type: functional;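 further: value from a broad kinome-wide panel profiling study in which LRRK2 was one of the kinases tested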
[38] = target: Cyclin-dependent kinase 8 (Homo sapiens, UniProt P49336); assay: Navigating the Kinome. Panel member name: CDK8; type: functional
[39] = target: Serine/threonine-protein kinase PLK1 (Homo sapiens, UniProt P53350); type: functional;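 further: PLK1 measured as one member of a kinome-wide profiling panel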
[40] = target: Serine/threonine-protein kinase pim-3 (Homo sapiens, UniProt Q86V86); type: functional;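 further: value obtained as one member of a broad kinase panel profiling effort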
[41] = target: Serine/threonine-protein kinase TBK1 (Homo sapiens, UniProt Q9UHD2); assay: Navigating the Kinome. Panel member name: TBK1; type: functional
[42] = target: Activated CDC42 kinase 1 (Homo sapiens, UniProt Q07912); assay: Navigating the Kinome. Panel member name: ACK1; type: functional
[43] = target: Cyclin-dependent kinase 7 (Homo sapiens, UniProt P50613); type: functional;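 further: value comes from a kinome-wide kinase profiling panel in which CDK7 is one member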
[44] = target: RAC-gamma serine/threonine-protein kinase (Homo sapiens, UniProt Q9Y243); type: functional
[45] = target: Glycogen synthase kinase-3 alpha (Homo sapiens, UniProt P49840); type: functional;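 further: GSK3A result taken from a broad kinome-wide kinase panel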
[46] = target: Dual specificity mitogen-activated protein kinase kinase 2 (Homo sapiens, UniProt P36507); assay: Navigating the Kinome. Panel member name: MAP2K2; type: functional
[47] = target: Mitogen-activated protein kinase 14 (Homo sapiens, UniProt Q16539); type: functional;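 further: part of a kinome-wide panel, MAPK14 entry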
[48] = target: Casein kinase I isoform alpha (Homo sapiens, UniProt P48729); type: functional
[49] = target: Mitogen-activated protein kinase 9 (Homo sapiens, UniProt P45984); type: functional;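 further: value from a kinome panel profiling assay, MAPK9 panel entry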
[50] = target: Serine/threonine-protein kinase pim-1 (Homo sapiens, UniProt P11309); type: functional
[51] = target: cAMP-dependent protein kinase catalytic subunit PRKX (Homo sapiens, UniProt P51817); type: functional
[52] = target: Dual specificity mitogen-activated protein kinase kinase 1 (Homo sapiens, UniProt Q02750); assay: Navigating the Kinome. Panel member name: MAP2K1; type: functional
[53] = target: BDNF/NT-3 growth factors receptor (Homo sapiens, UniProt Q16620); type: functional;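 further: NTRK2 measured as one member of a broad kinome-wide kinase profiling panel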
[54] = target: Dual specificity protein kinase CLK2 (Homo sapiens, UniProt P49760); type: functional
[55] = target: Dual specificity tyrosine-phosphorylation-regulated kinase 1B (Homo sapiens, UniProt Q9Y463); assay: Navigating the Kinome. Panel member name: DYRK1B; type: functional
[56] = target: Inhibitor of nuclear factor kappa-B kinase subunit epsilon (Homo sapiens, UniProt Q14164); assay: Navigating the Kinome. Panel member name: IKBKE; type: functional
[57] = target: Serine/threonine-protein kinase D3 (Homo sapiens, UniProt O94806); type: functional;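 further: determined within a kinase panel screen, with PRKCN as the panel member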
[58] = target: Serine/threonine-protein kinase Nek2 (Homo sapiens, UniProt P51955); type: functional
[59] = target: RAC-alpha serine/threonine-protein kinase (Homo sapiens, UniProt P31749); type: functional;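 further: AKT1 affinity measured as one member of a kinome-wide kinase profiling panel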
[60] = target: Serine/threonine-protein kinase Chk1 (Homo sapiens, UniProt O14757); type: functional;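 further: measured as one member of a kinome-wide kinase profiling panel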
[61] = target: G protein-coupled receptor kinase 5 (Homo sapiens, UniProt P34947); assay: Navigating the Kinome. Panel member name: GPRK5; type: functional
[62] = target: Rho-associated protein kinase 1 (Homo sapiens, UniProt Q13464); type: functional;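 further: measured within a broad kinome-wide panel profiling many kinases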
[63] = target: Ribosomal protein S6 kinase alpha-3 (Homo sapiens, UniProt P51812); type: functional;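 further: measured within a kinome-wide profiling panel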
[64] = cAMP pathway inhibition in counterscreen cell line – TR-FRET cAMP detection, counter-screen for MC4R biased antagonist project, dose response (AID 602305); type: functional, cell-based;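 further: U2OS cells stimulated with forskolin near its EC80 as the cAMP inducer; potency is for inhibition of forskolin-stimulated cAMP signaling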
[65] = target: Melanocortin receptor 4 (Homo sapiens, UniProt P32245); assay: inhibitors of MC4R cAMP signaling – cell-based, TR-FRET, biased antagonists, dose response (AID 602298); type: functional;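 further: antagonist potency against agonist-stimulated cAMP production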

T1 sequence (P11940 whole entry, the tested form may be a part): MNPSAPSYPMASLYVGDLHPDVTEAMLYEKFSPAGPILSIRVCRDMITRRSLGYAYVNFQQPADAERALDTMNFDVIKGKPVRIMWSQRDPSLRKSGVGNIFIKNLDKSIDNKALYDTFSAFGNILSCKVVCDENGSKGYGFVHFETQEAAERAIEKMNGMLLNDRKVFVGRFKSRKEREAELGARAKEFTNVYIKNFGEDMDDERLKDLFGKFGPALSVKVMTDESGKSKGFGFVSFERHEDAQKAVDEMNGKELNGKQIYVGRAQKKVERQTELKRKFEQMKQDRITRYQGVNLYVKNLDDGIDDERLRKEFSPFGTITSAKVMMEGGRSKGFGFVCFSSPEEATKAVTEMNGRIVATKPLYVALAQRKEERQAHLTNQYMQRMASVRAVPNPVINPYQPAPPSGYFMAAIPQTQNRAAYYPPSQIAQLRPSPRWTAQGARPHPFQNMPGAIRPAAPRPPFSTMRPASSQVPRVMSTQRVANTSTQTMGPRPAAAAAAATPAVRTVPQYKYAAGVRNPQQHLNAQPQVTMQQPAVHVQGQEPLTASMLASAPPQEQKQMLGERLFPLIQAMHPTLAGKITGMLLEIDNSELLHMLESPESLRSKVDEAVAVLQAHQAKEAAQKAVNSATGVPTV
T2 sequence (P13569 whole entry, other chains not shown): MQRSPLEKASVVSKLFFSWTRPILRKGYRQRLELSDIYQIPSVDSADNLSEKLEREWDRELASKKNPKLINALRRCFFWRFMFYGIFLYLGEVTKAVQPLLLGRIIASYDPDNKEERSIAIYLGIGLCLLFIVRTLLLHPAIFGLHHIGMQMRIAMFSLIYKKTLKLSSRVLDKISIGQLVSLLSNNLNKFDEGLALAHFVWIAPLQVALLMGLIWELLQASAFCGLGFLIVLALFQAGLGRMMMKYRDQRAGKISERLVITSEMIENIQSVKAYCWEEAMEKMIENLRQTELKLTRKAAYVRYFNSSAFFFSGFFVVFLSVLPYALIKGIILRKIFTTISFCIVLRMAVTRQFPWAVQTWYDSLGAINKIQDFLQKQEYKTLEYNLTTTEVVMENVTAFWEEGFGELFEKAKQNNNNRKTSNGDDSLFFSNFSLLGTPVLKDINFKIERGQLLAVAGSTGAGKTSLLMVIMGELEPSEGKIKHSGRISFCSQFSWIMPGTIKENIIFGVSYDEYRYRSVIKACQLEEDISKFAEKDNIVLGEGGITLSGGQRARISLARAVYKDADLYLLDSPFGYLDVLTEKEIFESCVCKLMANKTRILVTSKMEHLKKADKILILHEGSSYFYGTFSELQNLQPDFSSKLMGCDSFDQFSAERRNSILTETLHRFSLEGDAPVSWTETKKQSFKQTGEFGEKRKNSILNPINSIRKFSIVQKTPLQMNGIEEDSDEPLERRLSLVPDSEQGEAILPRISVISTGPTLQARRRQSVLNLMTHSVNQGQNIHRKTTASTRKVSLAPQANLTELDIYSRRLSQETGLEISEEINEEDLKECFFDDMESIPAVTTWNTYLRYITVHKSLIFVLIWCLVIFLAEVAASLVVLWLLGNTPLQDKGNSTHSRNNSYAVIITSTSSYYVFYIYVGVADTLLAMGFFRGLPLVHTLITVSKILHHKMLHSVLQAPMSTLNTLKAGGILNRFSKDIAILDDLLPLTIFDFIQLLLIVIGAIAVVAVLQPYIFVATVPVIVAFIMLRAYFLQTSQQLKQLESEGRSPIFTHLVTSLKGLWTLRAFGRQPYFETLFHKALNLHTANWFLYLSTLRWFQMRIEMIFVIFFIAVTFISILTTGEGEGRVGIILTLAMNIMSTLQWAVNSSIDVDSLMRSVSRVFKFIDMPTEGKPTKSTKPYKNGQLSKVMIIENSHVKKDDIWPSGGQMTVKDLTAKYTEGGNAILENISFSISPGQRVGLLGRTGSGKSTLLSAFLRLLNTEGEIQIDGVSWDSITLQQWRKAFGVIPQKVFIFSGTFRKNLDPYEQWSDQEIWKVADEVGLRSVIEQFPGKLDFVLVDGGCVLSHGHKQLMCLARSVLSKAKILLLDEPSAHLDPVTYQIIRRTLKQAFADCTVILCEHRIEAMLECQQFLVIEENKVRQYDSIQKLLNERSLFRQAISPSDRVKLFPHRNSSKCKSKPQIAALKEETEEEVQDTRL
Chain of Glycogen synthase kinase-3 beta (P49841 whole entry): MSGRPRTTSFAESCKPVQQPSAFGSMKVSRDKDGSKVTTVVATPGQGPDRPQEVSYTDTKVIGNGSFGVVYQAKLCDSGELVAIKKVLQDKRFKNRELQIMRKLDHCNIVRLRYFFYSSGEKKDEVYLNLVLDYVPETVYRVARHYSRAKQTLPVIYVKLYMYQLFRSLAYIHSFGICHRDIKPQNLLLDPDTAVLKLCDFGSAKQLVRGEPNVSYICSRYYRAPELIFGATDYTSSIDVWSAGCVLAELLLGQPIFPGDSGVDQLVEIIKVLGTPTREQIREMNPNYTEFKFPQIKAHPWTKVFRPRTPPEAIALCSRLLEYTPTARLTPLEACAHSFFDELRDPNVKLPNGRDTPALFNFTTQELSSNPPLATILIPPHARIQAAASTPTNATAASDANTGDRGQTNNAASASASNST
Chain of Dual specificity protein kinase CLK4 (Q9HAZ1 whole entry): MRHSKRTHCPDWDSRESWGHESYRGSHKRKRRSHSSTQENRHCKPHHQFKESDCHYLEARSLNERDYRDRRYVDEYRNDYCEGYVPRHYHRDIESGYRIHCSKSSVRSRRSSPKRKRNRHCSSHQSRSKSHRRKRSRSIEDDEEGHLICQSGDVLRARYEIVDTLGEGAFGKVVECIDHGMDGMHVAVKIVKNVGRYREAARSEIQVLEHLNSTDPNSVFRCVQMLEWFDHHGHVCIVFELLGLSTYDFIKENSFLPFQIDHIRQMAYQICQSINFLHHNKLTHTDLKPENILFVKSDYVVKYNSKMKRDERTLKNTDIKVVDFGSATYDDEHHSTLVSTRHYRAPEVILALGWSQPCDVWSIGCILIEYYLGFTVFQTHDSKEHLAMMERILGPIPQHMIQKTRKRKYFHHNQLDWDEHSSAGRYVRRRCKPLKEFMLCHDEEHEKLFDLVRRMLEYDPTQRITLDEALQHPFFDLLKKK
Chain of Fibroblast growth factor receptor 1 (P11362 whole entry): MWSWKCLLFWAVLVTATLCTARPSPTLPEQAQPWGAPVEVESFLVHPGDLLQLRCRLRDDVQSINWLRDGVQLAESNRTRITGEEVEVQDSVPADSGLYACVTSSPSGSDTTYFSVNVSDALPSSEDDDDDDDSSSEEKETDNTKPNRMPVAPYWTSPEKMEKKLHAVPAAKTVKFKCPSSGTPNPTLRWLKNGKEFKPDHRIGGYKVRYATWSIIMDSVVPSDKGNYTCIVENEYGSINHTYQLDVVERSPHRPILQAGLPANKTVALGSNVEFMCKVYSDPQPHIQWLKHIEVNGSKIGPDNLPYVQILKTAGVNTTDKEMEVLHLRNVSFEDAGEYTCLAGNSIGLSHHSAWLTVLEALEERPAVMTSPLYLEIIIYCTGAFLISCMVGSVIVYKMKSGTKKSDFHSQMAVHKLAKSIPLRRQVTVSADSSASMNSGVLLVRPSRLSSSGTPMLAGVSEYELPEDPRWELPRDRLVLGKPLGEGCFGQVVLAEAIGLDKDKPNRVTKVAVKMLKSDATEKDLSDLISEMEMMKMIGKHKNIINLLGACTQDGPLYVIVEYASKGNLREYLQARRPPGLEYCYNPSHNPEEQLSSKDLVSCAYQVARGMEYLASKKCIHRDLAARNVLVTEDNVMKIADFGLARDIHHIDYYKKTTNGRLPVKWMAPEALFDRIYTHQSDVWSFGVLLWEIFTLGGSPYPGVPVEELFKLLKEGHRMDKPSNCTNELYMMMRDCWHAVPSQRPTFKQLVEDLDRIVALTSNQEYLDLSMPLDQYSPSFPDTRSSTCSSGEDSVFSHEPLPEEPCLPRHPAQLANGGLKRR
Chain of Cyclin-dependent kinase 5 (Q00535 whole entry): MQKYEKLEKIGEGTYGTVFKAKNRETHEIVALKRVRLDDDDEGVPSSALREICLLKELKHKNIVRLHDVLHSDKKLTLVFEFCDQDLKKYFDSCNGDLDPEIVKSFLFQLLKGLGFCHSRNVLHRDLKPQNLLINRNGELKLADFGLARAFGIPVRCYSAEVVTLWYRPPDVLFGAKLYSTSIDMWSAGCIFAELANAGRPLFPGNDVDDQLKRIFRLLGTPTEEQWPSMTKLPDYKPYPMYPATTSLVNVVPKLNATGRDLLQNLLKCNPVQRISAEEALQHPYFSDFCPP
Chain of Aurora kinase B (Q96GD4 whole entry): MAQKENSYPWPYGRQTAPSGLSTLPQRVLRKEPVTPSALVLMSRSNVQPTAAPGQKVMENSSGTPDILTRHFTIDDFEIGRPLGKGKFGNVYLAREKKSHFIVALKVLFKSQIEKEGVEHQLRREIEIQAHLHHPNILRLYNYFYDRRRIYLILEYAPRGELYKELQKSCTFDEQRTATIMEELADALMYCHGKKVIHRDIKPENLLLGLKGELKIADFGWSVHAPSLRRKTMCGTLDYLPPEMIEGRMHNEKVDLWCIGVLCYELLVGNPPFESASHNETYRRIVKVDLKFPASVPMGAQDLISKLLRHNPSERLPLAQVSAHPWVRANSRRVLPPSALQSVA
Chain of Cyclin-dependent kinase 7 (P50613 whole entry): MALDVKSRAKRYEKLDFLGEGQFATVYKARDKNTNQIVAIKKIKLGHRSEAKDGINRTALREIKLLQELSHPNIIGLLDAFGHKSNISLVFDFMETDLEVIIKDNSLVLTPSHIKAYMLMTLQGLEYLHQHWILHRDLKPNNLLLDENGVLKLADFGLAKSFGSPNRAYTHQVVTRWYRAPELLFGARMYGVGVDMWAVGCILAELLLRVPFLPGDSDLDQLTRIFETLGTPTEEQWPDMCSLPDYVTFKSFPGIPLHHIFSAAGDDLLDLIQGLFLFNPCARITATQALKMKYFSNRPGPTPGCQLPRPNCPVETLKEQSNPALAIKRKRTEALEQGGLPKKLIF

Nc1cc(Nc2ccc(O)c(CNC(=O)C(F)(F)F)c2)ncn1
active: Ki [1] 0.794 µM | Ki [2] 1.58 µM | Ki [3] 1.26 µM

Nc1nc(SCC(=O)Nc2ncccn2)nc2nc[nH]c12
active: Ki [4] 3.98 µM | Ki [6] 0.0794 µM
inactive: Ki [5] > 2 µM

O=C(O)CSc1cc(NS(=O)(=O)c2cccc([N+](=O)[O-])c2)c2ccccc2c1O
17.4 µM (not active): IC50 [17]
> 50 µM (not active): IC50 [10]
inactive: IC50 [8] 35.5 µM | IC50 [19] 12.9 µM | IC50 [22] > 66 µM
active: AC50 [7] 52 µM | CC50 [9] 26.5 µM | AC50 [11] 17.6 µM | AC50 [12] 21.2 µM | AC50 [13] 44.7 µM | IC50 [14] 5.4 µM | AC50 [15] 12.1 µM | IC50 [16] 13.6 µM | CC50 [18] 7.45 µM | AC50 [20] 21.7 µM | IC50 [21] 12.2 µM | IC50 [23] 5.62 µM | AC50 [24] 42.7 µM

O=C1NCc2ccc(-c3ccc(Cl)cc3)cc21
active: Ki [25] 63.1 µM | Ki [26] 63.1 µM | Ki [27] 63.1 µM | Ki [28] 50.1 µM | Ki [29] 63.1 µM

O=C1NCc2c(Br)cccc21
inactive: Ki [31] > 63.1 µM | Ki [25] > 79.4 µM | Ki [32] > 63.1 µM | Ki [33] > 79.4 µM | Ki [34] > 79.4 µM | Ki [35] > 100 µM | Ki [36] > 79.4 µM | Ki [38] > 79.4 µM | Ki [39] > 79.4 µM | Ki [40] > 79.4 µM | Ki [41] > 63.1 µM | Ki [27] > 63.1 µM | Ki [42] > 79.4 µM | Ki [43] > 79.4 µM | Ki [44] > 100 µM | Ki [45] > 79.4 µM | Ki [46] > 79.4 µM | Ki [47] > 79.4 µM | Ki [49] > 79.4 µM | Ki [51] > 63.1 µM | Ki [52] > 63.1 µM | Ki [53] > 79.4 µM | Ki [54] > 79.4 µM | Ki [56] > 63.1 µM | Ki [6] > 79.4 µM | Ki [57] > 79.4 µM | Ki [58] > 63.1 µM | Ki [59] > 79.4 µM | Ki [60] > 79.4 µM | Ki [61] > 79.4 µM | Ki [63] > 79.4 µM
active: Ki [30] 20 µM | Ki [1] 63.1 µM | Ki [37] 31.6 µM | Ki [48] 63.1 µM | Ki [50] 50.1 µM | Ki [3] 6.31 µM | Ki [55] 31.6 µM | Ki [62] 20 µM

O=C(CNC(=O)C(c1ccccc1)c1ccccc1)OCc1ccccc1
inactive: IC50 [64] > 64.6 µM | IC50 [65] > 64.6 µM
